The results in this text go back to patent US12589087B2, “Enantiomer selective action on neurotransmission” (The Board of Trustees of the Leland Stanford Junior …, priority 2021, dated 2026).

One test deals with T1, mGluR2 (Homo sapiens, UniProt Q14416).
T1 construct: host or cells: Chem-1 cells
In words: radioligand binding assay, recombinant Chem-1 cells. The protocol: (§1) Nonspecific AMPA, kainate and NMDA binding assays were performed by Eurofins Discovery (Cerep) using rat cerebral cortex membranes and radiolabeled [^3H]AMPA, [^3H]kainic acid and [^3H]CGP 39653, respectively. All compounds were tested at a single concentration of 100 uM in triplicate. mGluR1, mGluR2, mGluR5 and GABAB binding assays were performed by Eurofins Discovery. mGluR1 assay was performed using rat cerebellum membranes and radiolabeled [^3H]quisqalic acid. mGluR2 assay was performed using recombinant Chem-1 cells and [^3H]LY341495. mGluR5 and GABAB binding assays were performed using recombinant CHO-K1 cells and […], respectively. All compounds were tested at a single concentration of 100 uM in triplicate.
(§2) All receptor assays were performed exactly as described in Example 1. Functional assays of all GABAA, NMDA (GluN2A-GluN2D) and AMPA (GluA2) receptor subunits were performed by SB Drug Discovery as a part of their CNS discovery panel using FLIPR technology. All compounds were tested at 7 concentrations in triplicate and EC50/IC50 was determined where applicable. Functional GABAB assay was performed by Eurofins Discovery (Cerep) using Ca^2+-dependent fluorimetry in RBL cells expressing human GABAB (B1/B2) receptor. All compounds were tested at a single concentration of 100 uM in triplicate. […]

A further test has as its system NMDA nonspecific. Put plainly: radioligand binding assay, cerebral cortex membranes, [3H]CGP 39653. To be noted: NMDA nonspec, rat; 100 μM. The protocol: as §1, §2
The target of another test is T2, GABAA α2β2γ2 (Homo sapiens, UniProt P18507+P47869+P47870).
T2 construct: host or cells: HEK 293 (stably expressing)
Put plainly: FLIPR functional assay, HEK 293 cells (agonist/PAM/antagonist). In kind it is cell-based. To be noted: top concentration 1 mM, read-out: EC50, functional agonist receptor assay. The protocol:
(§3) Functional assays of all GABAA, NMDA (GluN2A-GluN2D) and AMPA (GluA2) receptor subunits were performed by SB Drug Discovery as a part of their CNS discovery panel using FLIPR technology. Briefly, receptor-expressing HEK 293 cell lines were incubated in a red membrane potential dye in HEPES:HBSS pH 7.4 buffer and the fluorescence (λex: 488, λex: 510-570) was monitored over time as the test compounds and/or reference compounds were added to the solution. In agonist assay, only test compounds were added. In positive allosteric modulator assay, cells were preincubated with test compounds and then low concentration (approximately EC20) of an appropriate agonist was added. In antagonist assay, cells were preincubated with test compounds and then high concentration (approximately EC80) of an appropriate agonist was added. For GABAA assays, GABA was used as the agonist, picrotoxin was used as the reference antagonist and allopregnanolone was used as the reference positive allosteric modulator (PAM). For NMDA assays, a mixture of glutamate, glycine and CaCl2 was used as the agonist, MK801 was the reference antagonist and pregnenolone sulfate or GNE 9278 were used as reference PAMs. For AMPA assays, glutamate was used as the agonist, CNQX was the reference antagonist and cyclothiazide was used as the reference PAM. All compounds were tested at 7 concentration points in triplicate and EC50/IC50 was determined where applicable. Functional GABAB assay was performed by Eurofins Discovery (Cerep) using Ca^2+-dependent fluorimetry in RBL cells expressing human GABAB (B1/B2) receptor. All compounds were tested at a single concentration of 100 uM in triplicate.
(§4) All receptor assays were performed exactly as described in Example 1. Functional assays of all GABAA, NMDA (GluN2A-GluN2D) and AMPA (GluA2) receptor subunits were performed by SB Drug Discovery as a part of their CNS discovery panel using FLIPR technology. All compounds were tested at 7 concentrations in triplicate and EC50/IC50 was determined where applicable. Functional GABAB assay was performed by Eurofins Discovery (Cerep) using Ca^2+-dependent fluorimetry in RBL cells expressing human GABAB (B1/B2) receptor. All compounds were tested at a single concentration of 100 uM in triplicate. Nonspecific AMPA, kainate and NMDA binding assays were performed by Eurofins Discovery (Cerep) using rat cerebral cortex membranes and radiolabeled [^3H]AMPA, [^3H]kainic acid and [^3H]CGP 39653, respectively. All compounds were tested at a single concentration of 100 uM in triplicate. mGluR1, mGluR2, mGluR5 and GABAB binding assays were performed by Eurofins Discovery. All compounds were tested at a single concentration of 100 uM in triplicate.

The next test deals with T3, GABAA α2β3γ2 (Homo sapiens, UniProt P18507+P28472+P47869).
T3 construct: host or cells: HEK 293 (stably expressing)
Described as above. The settings on record: top concentration 1 mM, read-out: EC50, functional agonist receptor assay. In kind it is cell-based. On the procedure:
as §3, §4

The next test concerns the target T4, GABAA α3β1γ2 (Homo sapiens, UniProt P18505+P18507+P34903).
T4 construct: host or cells: HEK 293 (stably expressing)
The description is as above. To be noted: top concentration 1 mM, read-out: EC50, functional agonist receptor assay. In kind it is cell-based. On the procedure:
as §3, §4

The next test addresses T5, GABAA α3β2γ2 (Homo sapiens, UniProt P18507+P34903+P47870).
T5 construct: host or cells: HEK 293 (stably expressing)
The test is described as above. In kind it is cell-based. To be noted: top concentration 1 mM, read-out: EC50, functional agonist receptor assay. The protocol:
as §3, §4

The target of the next test is T6, GABAA α3β3γ2 (Homo sapiens, UniProt P18507+P28472+P34903).
T6 construct: host or cells: HEK 293 (stably expressing)
The description is as above. In kind it is cell-based. The settings on record: top concentration 1 mM; for EC50: read-out: EC50, functional agonist receptor assay. The protocol:
as §3, §4

The target in the next test is T7, GABAA α4β1γ2 (Homo sapiens, UniProt P18505+P18507+P48169).
T7 construct: host or cells: HEK 293 (stably expressing)
The description is as above. The settings on record: top concentration 1 mM, read-out: EC50, functional agonist receptor assay. In kind it is cell-based. On the procedure: as §3, §4

The target of a further test is T8, GABAA α4β2γ2 (Homo sapiens, UniProt P18507+P47870+P48169).
T8 construct: host or cells: HEK 293 (stably expressing)
The test is described as above. In kind it is cell-based. The settings on record: top concentration 1 mM, read-out: EC50, functional agonist receptor assay. The protocol: as §3, §4

Another test has as its target T9, GABAA α4β3γ2 (Homo sapiens, UniProt P18507+P28472+P48169).
T9 construct: host or cells: HEK 293 (stably expressing)
The test is described as above. In kind it is cell-based. The settings on record: top concentration 1 mM, read-out: EC50, functional agonist receptor assay. The protocol:
as §3, §4

A further test has as its target GABAA α6β1γ2 (Homo sapiens, UniProt P18505+Q16445). The test is described as above. To be noted: top concentration 1 mM, read-out: EC50, functional agonist receptor assay. In kind it is cell-based. The protocol: as §3, §4
In a further test the target is GABAA α6β3γ2 (Homo sapiens, UniProt P28472+Q16445). Described as above. In kind it is cell-based. The settings on record: top concentration 1 mM, read-out: EC50, functional agonist receptor assay. On the procedure: as §3, §4
The target in another test is T10, GABAB (B1a/B2) (Homo sapiens, UniProt Q9UBS5).
T10 construct: host or cells: CHO-K1
Put plainly: radioligand binding assay. On the procedure: as §1, §4

A further test addresses T11, GABAB (B1b/B2) (Homo sapiens, UniProt Q9UBS5).
T11 construct: host or cells: CHO-K1
Put plainly: radioligand binding assay. On the procedure:
as §1, §4

The term inhibition denotes the drop in the measured response relative to a control, in per cent. One may read the EC50 as the concentration that produces a half-maximal response. The IC50 is the concentration at which inhibition is half-maximal.

T6 sequence (P34903 29-492): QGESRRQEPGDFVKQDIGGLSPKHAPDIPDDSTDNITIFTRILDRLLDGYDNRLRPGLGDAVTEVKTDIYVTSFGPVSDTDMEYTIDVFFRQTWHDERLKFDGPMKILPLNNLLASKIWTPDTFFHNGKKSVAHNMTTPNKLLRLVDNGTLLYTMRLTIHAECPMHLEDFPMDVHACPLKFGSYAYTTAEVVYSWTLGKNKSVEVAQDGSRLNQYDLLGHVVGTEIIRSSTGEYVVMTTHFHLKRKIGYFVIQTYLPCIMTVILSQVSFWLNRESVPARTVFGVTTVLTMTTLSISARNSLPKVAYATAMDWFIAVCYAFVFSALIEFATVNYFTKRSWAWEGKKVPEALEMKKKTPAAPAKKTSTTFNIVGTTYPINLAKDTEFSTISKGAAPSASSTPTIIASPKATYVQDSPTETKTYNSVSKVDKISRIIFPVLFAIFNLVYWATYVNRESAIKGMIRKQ
T6 sequence (P28472 26-473): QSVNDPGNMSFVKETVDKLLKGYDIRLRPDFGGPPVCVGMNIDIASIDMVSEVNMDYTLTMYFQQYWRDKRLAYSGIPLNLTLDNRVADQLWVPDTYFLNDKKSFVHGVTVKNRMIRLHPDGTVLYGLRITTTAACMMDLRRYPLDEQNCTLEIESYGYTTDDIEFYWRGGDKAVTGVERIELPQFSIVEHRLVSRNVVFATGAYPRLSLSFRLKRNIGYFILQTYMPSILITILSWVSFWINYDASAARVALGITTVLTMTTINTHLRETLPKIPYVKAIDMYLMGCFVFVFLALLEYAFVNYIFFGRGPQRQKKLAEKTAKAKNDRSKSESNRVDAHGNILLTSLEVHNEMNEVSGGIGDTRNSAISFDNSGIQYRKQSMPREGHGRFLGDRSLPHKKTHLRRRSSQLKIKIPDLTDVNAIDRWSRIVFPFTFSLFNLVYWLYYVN
T6 sequence (P18507 40-475): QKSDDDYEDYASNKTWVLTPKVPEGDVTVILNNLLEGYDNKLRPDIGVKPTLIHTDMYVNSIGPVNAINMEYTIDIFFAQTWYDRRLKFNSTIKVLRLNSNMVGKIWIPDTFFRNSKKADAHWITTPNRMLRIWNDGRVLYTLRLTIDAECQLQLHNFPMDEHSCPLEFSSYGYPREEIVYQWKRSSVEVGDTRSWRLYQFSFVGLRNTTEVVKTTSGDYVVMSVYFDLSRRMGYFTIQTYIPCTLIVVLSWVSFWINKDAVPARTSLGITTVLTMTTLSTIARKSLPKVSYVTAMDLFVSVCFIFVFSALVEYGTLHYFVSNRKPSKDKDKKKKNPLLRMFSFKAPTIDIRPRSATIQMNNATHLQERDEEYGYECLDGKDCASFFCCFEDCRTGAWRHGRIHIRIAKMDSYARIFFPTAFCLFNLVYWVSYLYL
T10 sequence (Q9UBS5 15-961 limits assumed): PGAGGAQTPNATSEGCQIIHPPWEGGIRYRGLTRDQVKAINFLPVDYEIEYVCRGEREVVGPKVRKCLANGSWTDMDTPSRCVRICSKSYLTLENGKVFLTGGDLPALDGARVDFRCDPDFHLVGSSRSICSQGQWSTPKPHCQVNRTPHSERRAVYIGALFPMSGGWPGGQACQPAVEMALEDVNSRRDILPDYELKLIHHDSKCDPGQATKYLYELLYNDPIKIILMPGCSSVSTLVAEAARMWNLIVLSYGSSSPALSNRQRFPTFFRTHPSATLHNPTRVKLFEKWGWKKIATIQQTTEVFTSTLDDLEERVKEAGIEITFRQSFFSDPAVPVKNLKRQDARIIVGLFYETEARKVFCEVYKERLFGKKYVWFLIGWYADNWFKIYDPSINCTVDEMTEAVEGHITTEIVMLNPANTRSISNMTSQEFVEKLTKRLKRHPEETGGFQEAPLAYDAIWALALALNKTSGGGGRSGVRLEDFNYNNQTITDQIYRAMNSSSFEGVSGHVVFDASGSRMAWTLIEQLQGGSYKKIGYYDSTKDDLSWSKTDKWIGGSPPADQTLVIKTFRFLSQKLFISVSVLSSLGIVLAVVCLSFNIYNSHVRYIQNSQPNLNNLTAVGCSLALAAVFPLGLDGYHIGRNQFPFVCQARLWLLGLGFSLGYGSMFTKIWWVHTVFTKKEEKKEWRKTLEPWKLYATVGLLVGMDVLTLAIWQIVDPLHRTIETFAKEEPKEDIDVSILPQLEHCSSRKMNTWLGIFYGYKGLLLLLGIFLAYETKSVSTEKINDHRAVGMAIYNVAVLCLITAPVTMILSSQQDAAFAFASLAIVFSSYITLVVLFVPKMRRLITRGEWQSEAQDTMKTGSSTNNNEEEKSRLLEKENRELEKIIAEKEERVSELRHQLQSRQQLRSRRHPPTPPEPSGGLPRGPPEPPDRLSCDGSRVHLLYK
T10 sequence (O75899 42-941 partner): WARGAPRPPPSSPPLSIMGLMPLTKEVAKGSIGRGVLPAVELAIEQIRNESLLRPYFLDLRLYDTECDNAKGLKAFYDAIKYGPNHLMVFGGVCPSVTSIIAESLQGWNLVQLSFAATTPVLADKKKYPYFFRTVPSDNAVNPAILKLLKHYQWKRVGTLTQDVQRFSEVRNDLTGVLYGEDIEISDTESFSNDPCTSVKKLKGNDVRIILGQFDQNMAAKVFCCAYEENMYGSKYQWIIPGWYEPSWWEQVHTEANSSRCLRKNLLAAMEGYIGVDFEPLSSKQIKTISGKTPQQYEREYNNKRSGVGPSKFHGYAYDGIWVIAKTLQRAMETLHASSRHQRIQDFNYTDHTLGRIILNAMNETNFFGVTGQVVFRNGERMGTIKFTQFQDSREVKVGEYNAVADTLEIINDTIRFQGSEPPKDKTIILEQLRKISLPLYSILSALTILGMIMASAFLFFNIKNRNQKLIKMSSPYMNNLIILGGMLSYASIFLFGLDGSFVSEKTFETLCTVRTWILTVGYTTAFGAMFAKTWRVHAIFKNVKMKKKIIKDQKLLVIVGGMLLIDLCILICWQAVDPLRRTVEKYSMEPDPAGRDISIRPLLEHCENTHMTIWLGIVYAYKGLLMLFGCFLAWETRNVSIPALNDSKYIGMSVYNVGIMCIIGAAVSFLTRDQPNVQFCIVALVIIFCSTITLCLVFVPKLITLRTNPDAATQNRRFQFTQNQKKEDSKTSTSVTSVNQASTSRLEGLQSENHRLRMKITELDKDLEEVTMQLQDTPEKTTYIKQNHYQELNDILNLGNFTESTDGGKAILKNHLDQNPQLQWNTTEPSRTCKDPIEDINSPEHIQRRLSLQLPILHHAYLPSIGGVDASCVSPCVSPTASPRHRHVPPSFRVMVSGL
T11 sequence (Q9UBS5 1-844 isoform Q9UBS5-2): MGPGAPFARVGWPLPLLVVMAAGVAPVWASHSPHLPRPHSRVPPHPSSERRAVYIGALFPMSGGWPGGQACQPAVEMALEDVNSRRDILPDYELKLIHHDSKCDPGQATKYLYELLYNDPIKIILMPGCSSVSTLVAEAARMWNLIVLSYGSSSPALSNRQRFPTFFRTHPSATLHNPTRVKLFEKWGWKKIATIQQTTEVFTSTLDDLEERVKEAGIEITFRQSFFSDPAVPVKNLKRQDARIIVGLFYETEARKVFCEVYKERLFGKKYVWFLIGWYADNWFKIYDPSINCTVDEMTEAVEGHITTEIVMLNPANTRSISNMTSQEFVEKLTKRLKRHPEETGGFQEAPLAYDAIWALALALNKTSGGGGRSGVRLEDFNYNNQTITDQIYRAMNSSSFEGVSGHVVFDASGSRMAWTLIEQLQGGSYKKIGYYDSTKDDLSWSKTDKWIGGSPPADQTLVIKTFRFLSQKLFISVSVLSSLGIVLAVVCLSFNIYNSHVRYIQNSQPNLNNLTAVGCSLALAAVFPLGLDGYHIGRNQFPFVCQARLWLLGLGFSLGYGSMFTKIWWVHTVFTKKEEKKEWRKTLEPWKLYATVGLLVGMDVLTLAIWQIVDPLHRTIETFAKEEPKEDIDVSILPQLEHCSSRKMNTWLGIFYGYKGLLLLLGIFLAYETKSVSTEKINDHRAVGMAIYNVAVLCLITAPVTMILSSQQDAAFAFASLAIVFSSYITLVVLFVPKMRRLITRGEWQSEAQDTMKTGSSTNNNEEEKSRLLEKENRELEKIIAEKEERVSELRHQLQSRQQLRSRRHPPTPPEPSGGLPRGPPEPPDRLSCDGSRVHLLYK
T11 sequence (O75899 42-941 partner): as the sequence (O75899 42-941 partner) above
T9 sequence (P48169 36-554): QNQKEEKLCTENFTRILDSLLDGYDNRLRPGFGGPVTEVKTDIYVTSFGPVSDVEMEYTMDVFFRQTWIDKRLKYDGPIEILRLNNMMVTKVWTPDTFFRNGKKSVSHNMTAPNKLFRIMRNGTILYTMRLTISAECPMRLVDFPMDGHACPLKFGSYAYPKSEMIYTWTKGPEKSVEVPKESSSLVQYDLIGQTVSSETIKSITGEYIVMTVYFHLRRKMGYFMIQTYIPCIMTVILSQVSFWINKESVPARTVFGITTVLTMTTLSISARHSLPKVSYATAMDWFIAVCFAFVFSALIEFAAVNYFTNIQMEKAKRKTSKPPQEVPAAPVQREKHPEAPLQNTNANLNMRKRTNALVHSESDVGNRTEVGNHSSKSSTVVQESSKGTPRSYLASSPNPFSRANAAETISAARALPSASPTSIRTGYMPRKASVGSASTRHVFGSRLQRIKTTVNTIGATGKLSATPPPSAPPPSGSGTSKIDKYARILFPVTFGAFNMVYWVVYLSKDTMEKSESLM
T9 sequence (P28472 26-473): as the sequence (P28472 26-473) above
T9 sequence (P18507 40-475): as the sequence (P18507 40-475) above

Take `C[C@@](N)(CCC(=O)O)C(=O)O` [(R)-2MeGlu, (R)-2-methylglutamic acid]: the inhibition at 100 µM on mGluR2 was -3%; on GABAB (B1a/B2), 18%; on GABAB (B1b/B2), 13%. The “% of radioligand binding inhibition” value in the test with NMDA nonspecific is 8%. Besides, the EC50 at GABAA α2β2γ2 turned out to be 660 µM; at GABAA α2β3γ2 it was 622 µM; on GABAA α3β1γ2 it was 742 µM; at GABAA α3β2γ2, 1.04 mM; at GABAA α3β3γ2, 959 µM; on GABAA α4β1γ2 it was 870 µM. The EC50 was 1.25 mM on GABAA α4β2γ2, greater than 1 mM at GABAA α4β3γ2, 772 µM at GABAA α6β1γ2 and greater than 1000 µM at GABAA α6β3γ2.

Regarding `C[C@](N)(CCC(=O)O)C(=O)O` [(S)-2MeGlu, (S)-2-methylglutamic acid], the values for the inhibition at 100 µM on mGluR2, on GABAB (B1a/B2) and on GABAB (B1b/B2) were 25%, 6% and 14%, respectively. The “% of radioligand binding inhibition” value in the test on NMDA nonspecific stood at 3%. Further, the EC50 at GABAA α2β2γ2 is 530 µM; at GABAA α2β3γ2, 342 µM; at GABAA α3β1γ2, 782 µM; at GABAA α3β2γ2, 0.961 mM; on GABAA α3β3γ2 it was 725 µM; on GABAA α4β1γ2 it was 704 µM. The EC50 on GABAA α4β2γ2 was 1.02 mM; on GABAA α4β3γ2 it was greater than 1 mM; at GABAA α6β1γ2, 280 µM; on GABAA α6β3γ2, 998 µM. Moreover, the IC50 on GABAA α3β3γ2 (read-out: IC50, functional antagonist receptor assay) was found to be 978 µM.
